What all share (assay type): cell-based
One test concerns the target T1, AKT2 (Homo sapiens, UniProt P31751).
T1 construct: expressed in transfected cells; host or cells: HEK293
The test is described as follows: Live cell AKT2 target engagement by NanoBRET competitive probe displacement. The settings on record: HEK293 cells transfected with kinase-NanoLuciferase fusion, 2 h at 37° C. Put shortly: (§1)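 HEK293 cells transiently expressing kinase–NanoLuciferase fusions (overnight transfection) were treated with serial compound dilutions plus fluorescent ATP-competitive tracer at ~EC50 concentration for 2 h at 37 °C. BRET ratio E600/E460 measured after substrate and extracellular luciferase inhibitor addition; IC50 from log(inhibitor)–response Hill fit.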
A general note: In BRET a luciferase serves as donor, and the signal depends on an acceptor being close.

Another test has as its target T2, AKT1 E17K (Homo sapiens, UniProt P31749, E17K).
T2 construct: expressed in transfected cells; host or cells: HEK293
As to the kind of experiment: Live cell AKT1 E17K target engagement by NanoBRET competitive probe displacement. The following applies: HEK293 cells transfected with kinase-NanoLuciferase fusion, 2 h at 37° C. Put shortly:
as §1

Test [1] relates to LAPC4 prostate cancer cells. As to the kind of experiment: Antiproliferative effects in LAPC4 cells (CellTiter Glo). The settings on record: LAPC4 cells (AKT1 E17K allele), read-out: LAPC4 proliferation IC50. Put shortly:
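LAPC4 cells were cultured in IMDM with 12% FBS and 1% P/S, seeded at 1,000 cells/well and exposed to compound dilutions in DMSO. After 72 h, intracellular ATP was measured by CellTiter Glo luminescence, and IC50 values came from a log(inhibitor) vs. response Hill fit.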
Background: Cellular ATP, detected with luciferase, serves as a proxy for viable cell number.

The next test concerns the target T3, AKT1 WT (Homo sapiens, UniProt P31749).
T3 construct: expressed in transfected cells; host or cells: HEK293
The test is described as follows: Live cell AKT1 WT target engagement by NanoBRET competitive probe displacement. The following applies: HEK293 cells transfected with kinase-NanoLuciferase fusion, 2 h at 37° C. Put shortly: as §1

Structures are written as SMILES. Read-outs that look alike come from different tables or passages of the source.

T2 sequence (P31749 whole entry E17K): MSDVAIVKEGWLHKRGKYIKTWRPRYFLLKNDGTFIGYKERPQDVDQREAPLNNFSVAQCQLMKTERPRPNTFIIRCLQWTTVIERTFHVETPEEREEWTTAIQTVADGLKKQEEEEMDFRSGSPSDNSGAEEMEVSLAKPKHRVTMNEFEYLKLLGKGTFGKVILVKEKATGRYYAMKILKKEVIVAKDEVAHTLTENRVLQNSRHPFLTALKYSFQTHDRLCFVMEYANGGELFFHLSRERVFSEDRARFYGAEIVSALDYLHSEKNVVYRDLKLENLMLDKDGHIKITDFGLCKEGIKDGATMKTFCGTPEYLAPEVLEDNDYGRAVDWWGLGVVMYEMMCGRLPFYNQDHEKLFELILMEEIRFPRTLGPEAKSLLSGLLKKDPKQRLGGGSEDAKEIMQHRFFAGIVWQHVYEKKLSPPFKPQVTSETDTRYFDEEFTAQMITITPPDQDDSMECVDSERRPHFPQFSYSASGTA
T1 sequence (P31751 whole entry): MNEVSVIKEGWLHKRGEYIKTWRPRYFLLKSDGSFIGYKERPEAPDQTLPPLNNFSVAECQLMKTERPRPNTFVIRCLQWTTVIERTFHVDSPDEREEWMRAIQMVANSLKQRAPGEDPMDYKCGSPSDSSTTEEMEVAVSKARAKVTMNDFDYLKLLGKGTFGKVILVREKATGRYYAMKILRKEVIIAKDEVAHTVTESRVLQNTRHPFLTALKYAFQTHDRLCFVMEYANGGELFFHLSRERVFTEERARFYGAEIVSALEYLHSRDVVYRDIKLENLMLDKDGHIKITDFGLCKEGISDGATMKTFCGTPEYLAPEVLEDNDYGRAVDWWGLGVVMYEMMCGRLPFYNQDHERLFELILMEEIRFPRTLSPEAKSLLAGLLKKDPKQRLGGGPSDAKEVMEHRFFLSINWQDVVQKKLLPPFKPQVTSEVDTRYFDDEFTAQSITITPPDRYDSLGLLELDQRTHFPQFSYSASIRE
T3 sequence (P31749 whole entry): as the sequence (P31749 whole entry E17K) above, with K17E counted along it

With `C=CC(=O)N1CC2(CCC(N[C@H]3CCc4cc(-n5c(-c6cccnc6N)nc6ccc(-n7cccn7)nc65)ccc43)CC2)C1` [Example 32, 1-(7-{[(1S)-5-[2-(2-aminopyridin-3-yl)-5-(pyrazol-1-yl)imidazo[4,5-b]pyridin-3-yl]-2,3-dihydro-1H-inden-1-yl]amino}-2-azaspiro[3.5]nonan-2-yl)prop-2-en-1-one], the IC50 on AKT2 turned out to be 41.6 nM; at AKT1 E17K, 10.1 nM; in test [1] (Homo sapiens, LAPC4, 72 h) it was 14.1 nM; on AKT1 WT it was 13.1 nM.

Turning to `C=CC(=O)N1CC2COCC(C1)C2N[C@H]1CCc2cc(-n3c(-c4cccnc4N)nc4ccc(-n5cccn5)nc43)ccc21` (mixture of isomers) [Example 64, 1-(9-(((S)-5-(2-(2-aminopyridin-3-yl)-5-(1H-pyrazol-1-yl)-3H-imidazo[4,5-b]pyridin-3-yl)-2,3-dihydro-1H-inden-1-yl)amino)-3-oxa-7-azabicyclo[3.3.1]nonan-7-yl)prop-2-en-1-one], the IC50 was determined as 158 nM at AKT2; 53.3 nM at AKT1 E17K; 145 nM in test [1] (Homo sapiens, LAPC4, 72 h); 20 nM at AKT1 WT.

`C=CC(=O)N1CCC(N[C@@H]2c3ccc(-n4c(-c5cccnc5N)nc5ccc(-n6cccn6)nc54)cc3CC2F)C[C@H]1C` (single isomer, unassigned) [Example 146, 1-((2R,4*)-4-(((1R,2*)-5-(2-(2-aminopyridin-3-yl)-5-(1H-pyrazol-1-yl)-3H-imidazo[4,5-b]pyridin-3-yl)-2-fluoro-2,3-dihydro-1H-inden-1-yl)amino)-2-methylpiperidin-1-yl)prop-2-en-1-one]: the IC50 worked out at 1580 nM at AKT2, 78.4 nM on AKT1 E17K, 448 nM in test [1] (72 h) and 22.9 nM on AKT1 WT.

With `C=CC(=O)N1CC2CC[C@@H]1CC2N[C@H]1CCc2cc(-n3c(-c4cccnc4N)nc4ccc(-n5cccn5)nc43)ccc21` (single isomer, unassigned) [Example 132, 1-[(1R,4R,5*)-5-{[(1S)-5-[2-(2-aminopyridin-3-yl)-5-(pyrazol-1-yl)imidazo[4,5-b]pyridin-3-yl]-2,3-dihydro-1H-inden-1-yl]amino}-2-azabicyclo[2.2.2]octan-2-yl]prop-2-en-1-one], the IC50 on AKT2 came to 2250 nM; at AKT1 E17K, 326 nM; in test [1] (72 h), 1510 nM; at AKT1 WT it was 97.5 nM.

For the compound `C=CC(=O)N1CCC(N[C@@H]2c3ccc(-n4c(-c5cccnc5N)nc5ccc(-n6cccn6)nc54)cc3CC2F)C[C@H]1C` (single isomer, unassigned) [Example 144, 1-((2R,4*)-4-(((1R,2*)-5-(2-(2-aminopyridin-3-yl)-5-(1H-pyrazol-1-yl)-3H-imidazo[4,5-b]pyridin-3-yl)-2-fluoro-2,3-dihydro-1H-inden-1-yl)amino)-2-methylpiperidin-1-yl)prop-2-en-1-one], the IC50 was determined as 1180 nM at AKT2, 74.1 nM at AKT1 E17K, 293 nM in test [1] (72 h) and 26 nM on AKT1 WT.

On to `C=CC(=O)Nc1c(F)cccc1C(=O)N[C@H]1CCc2cc(-n3c(-c4cccnc4N)nc4ccc(-n5cccn5)nc43)ccc21` [Example 44, N-[(1S)-5-[2-(2-aminopyridin-3-yl)-5-(pyrazol-1-yl)imidazo[4,5-b]pyridin-3-yl]-2,3-dihydro-1H-inden-1-yl]-3-fluoro-2-(prop-2-enamido)benzamide], for which the IC50 on AKT2 amounted to 103 nM; on AKT1 E17K it was 49 nM; in test [1] (Homo sapiens, LAPC4, 72 h), 122 nM; on AKT1 WT it was 34.5 nM.

Turning to `C=CC(=O)N1CCC(N[C@H]2CCc3cc(-n4c(-c5cccnc5N)nc5ccc(C6CC6)nc54)ccc32)C(C)C1` (single isomer, unassigned) [Example 229, 1-((3*,4*)-4-(((S)-5-(2-(2-aminopyridin-3-yl)-5-cyclopropyl-3H-imidazo[4,5-b]pyridin-3-yl)-2,3-dihydro-1H-inden-1-yl)amino)-3-methylpiperidin-1-yl)prop-2-en-1-one], the IC50 was determined as 97.7 nM at AKT2; 21.9 nM on AKT1 E17K; 334 nM in test [1] (Homo sapiens, LAPC4, 72 h); 756 nM on AKT1 WT.

As to `C=CC(=O)N1CCC(N[C@H]2CCc3cc(-n4c(-c5cccnc5N)nc5ccc(C6CC6)nc54)ccc32)C(F)C1` (single isomer, unassigned) [Example 177, 1-((3*,4*)-4-(((S)-5-(2-(2-aminopyridin-3-yl)-5-cyclopropyl-3H-imidazo[4,5-b]pyridin-3-yl)-2,3-dihydro-1H-inden-1-yl)amino)-3-fluoropiperidin-1-yl)prop-2-en-1-one], the IC50 on AKT2 was found to be 114 nM; on AKT1 E17K, 36.9 nM; in test [1] (72 h) it was 416 nM; at AKT1 WT it was 1520 nM.

Turning to `C=CC(=O)N1CCC(N[C@@H]2c3ccc(-n4c(-c5cccnc5N)nc5ccc(-n6ccc(C7CC7)n6)nc54)cc3CC2F)CC1` (single isomer, unassigned) [Example 298, 1-(4-(((1R,2*)-5-(2-(2-aminopyridin-3-yl)-5-(3-cyclopropyl-1H-pyrazol-1-yl)-3H-imidazo[4,5-b]pyridin-3-yl)-2-fluoro-2,3-dihydro-1H-inden-1-yl)amino)piperidin-1-yl)prop-2-en-1-one], the IC50 at AKT2 turned out to be 57.3 nM; on AKT1 E17K it was 14.2 nM; in test [1] (72 h) it was 314 nM; on AKT1 WT, 294 nM.

In the case of `C=CC(=O)N1CCC(N[C@H]2CCc3cc(-n4c(-c5cccnc5N)nc5ccc(C(F)(F)F)nc54)ccc32)CC1` [Example 348], the IC50 at AKT2 was 362 nM; at AKT1 E17K, 32 nM; in test [1] (Homo sapiens, LAPC4, 72 h) it was 872 nM; at AKT1 WT, 2670 nM.

On to `C=CC(=O)N1CCC(N[C@H]2CCc3cc(-n4c(-c5cccnc5)nc5ccc(-n6cccn6)nc54)ccc32)CC1` [Example 153, (S)-1-(4-((5-(5-(1H-pyrazol-1-yl)-2-(pyridin-3-yl)-3H-imidazo[4,5-b]pyridin-3-yl)-2,3-dihydro-1H-inden-1-yl)amino)piperidin-1-yl)prop-2-en-1-one], for which the IC50 at AKT2 was found to be 1080 nM; at AKT1 E17K, 168 nM; in test [1] (Homo sapiens, LAPC4, 72 h), 362 nM; at AKT1 WT it was 26.9 nM.

As to `C=CC(=O)N1CCC(N[C@@H]2c3ccc(-n4c(-c5cccnc5N)nc5ccc(-n6ccc(OC)n6)nc54)cc3CC2F)CC1` (single isomer, unassigned) [Example 287, 1-(4-(((1R,2*)-5-(2-(2-aminopyridin-3-yl)-5-(3-methoxy-1H-pyrazol-1-yl)-3H-imidazo[4,5-b]pyridin-3-yl)-2-fluoro-2,3-dihydro-1H-inden-1-yl)amino)piperidin-1-yl)prop-2-en-1-one], the IC50 came out at 41.8 nM on AKT2, 7.68 nM at AKT1 E17K, 110 nM in test [1] (72 h) and 227 nM on AKT1 WT.

`C=CC(=O)N1CCC(N[C@H]2CCc3cc(-n4c(-c5cccnc5N)nc5c(C#N)cc(-n6cccn6)nc54)ccc32)CC1` [Example 315, 2-(2-aminopyridin-3-yl)-3-[(1S)-1-{[1-(prop-2-enoyl)piperidin-4-yl]amino}-2,3-dihydro-1H-inden-5-yl]-5-(pyrazol-1-yl)imidazo[4,5-b]pyridine-7-carbonitrile]: the IC50 at AKT2 was found to be 70.3 nM; at AKT1 E17K it was 14.3 nM; in test [1] (Homo sapiens, LAPC4, 72 h) it was 120 nM; at AKT1 WT, 183 nM.

Consider `C=C(C)C(=O)Nc1ccccc1C(=O)N[C@H]1CCc2cc(-n3c(-c4cccnc4N)nc4ccc(-n5cccn5)nc43)ccc21` [Example 17, (S)-N-(5-(2-(2-aminopyridin-3-yl)-5-(1H-pyrazol-1-yl)-3H-imidazo[4,5-b]pyridin-3-yl)-2,3-dihydro-1H-inden-1-yl)-2-methacrylamidobenzamide], for which the IC50 on AKT2 was determined as 1020 nM; at AKT1 E17K, 146 nM; in test [1] (Homo sapiens, LAPC4, 72 h), 2330 nM; on AKT1 WT it was 43 nM.

In the case of `C=CC(=O)N1CCC(CN[C@H]2CCc3cc(-n4c(-c5cccnc5N)nc5ccc(-n6cccn6)nc54)ccc32)(OC)CC1` [Example 183, 1-[4-({[(1S)-5-[2-(2-aminopyridin-3-yl)-5-(pyrazol-1-yl)imidazo[4,5-b]pyridin-3-yl]-2,3-dihydro-1H-inden-1-yl]amino}methyl)-4-methoxypiperidin-1-yl]prop-2-en-1-one], the IC50 on AKT2 was 633 nM; at AKT1 E17K, 99.4 nM; in test [1] (Homo sapiens, LAPC4, 72 h), 1600 nM; at AKT1 WT it was 1260 nM.

Turning to `C=CC(=O)N1CCCC(N[C@H]2CCc3cc(-n4c(-c5cccnc5N)nc5ccc(-n6cccn6)nc54)ccc32)CC1` (single isomer, unassigned) [Example 82, 1-((*)-4-(((S)-5-(2-(2-aminopyridin-3-yl)-5-(1H-pyrazol-1-yl)-3H-imidazo[4,5-b]pyridin-3-yl)-2,3-dihydro-1H-inden-1-yl)amino)azepan-1-yl)prop-2-en-1-one], the IC50 was 640 nM on AKT2, 247 nM on AKT1 E17K, 568 nM in test [1] (72 h) and 78.1 nM on AKT1 WT.

With `C=CC(=O)N1CCC(N[C@H]2CCc3cc(-n4c(-c5cccnc5N)nc5ccc(-n6cccn6)nc54)ccc32)C(F)C1` (single isomer, unassigned) [Example 105, 1-((3*,4*)-4-(((S)-5-(2-(2-aminopyridin-3-yl)-5-(1H-pyrazol-1-yl)-3H-imidazo[4,5-b]pyridin-3-yl)-2,3-dihydro-1H-inden-1-yl)amino)-3-fluoropiperidin-1-yl)prop-2-en-1-one], the IC50 on AKT2 stood at 50.1 nM; at AKT1 E17K, 14.8 nM; in test [1] (72 h), 53 nM; at AKT1 WT, 4.51 nM.

These data come from patent US12570655B2, “Cysteine covalent modifiers of AKT1 and uses thereof” (Terremoto Biosciences, Inc., priority 2023, dated 2026).
